Where a name gives a salt, the structure may show the parent alone.
What was measured:
[1] = test system: diaphragm tissue from fat-fed rats; assay: Pyruvate oxidation by diaphragm tissue from fat-fed rats (14C-pyruvate into CO2) in vitro; type: cell-based; settings: Rattus norvegicus, stimulation of pyruvate oxidation, concentration 0.5 mmolar
Description: Diaphragm tissue is obtained from rats fed on a high fat diet similar to 'Diet B' described by Zaragoza and Felber [Horm, Metab. Res., 2, 323 (1970)]. Pyruvate oxidation by such tissue is assessed by measurement of the rate of incorporation of carbon-14 from carbon-14-labelled pyruvate into carbon dioxide in vitro, as described by Bringolf [Eur. J. Biochem., 26, 360 (1972)]. The rate of pyruvate oxidation is depressed by 50-75% compared with that by diaphragm tissue from rats fed on a normal diet. When the compounds of the invention are added to the medium, they are found to stimulate pyruvate oxidation by diaphragm tissue from fat-fed rats in a dose dependent manner.

[2] = test system: pyruvate dehydrogenase enzyme (PDH); assay: Proportion of active pyruvate dehydrogenase (PDHa/PDHt) in hearts of fat-fed rats after dosing; type: in vivo, rat; settings: heart, after 1.5 hours
Description: Rats fed on a high fat diet as in the previous test, are treated either with placebo or with the compound of formula (I) or (II) by subcutaneous or intravenous injection or by oral administration. After 1.5 hours the rat hearts are removed and homogenized under conditions which minimize changes in the proportion of the pyruvate dehydrogenase enzyme (PDH) which is present in the active form, as described by Whitehouse and Randle [Biochem. J., 134, 651 (1973)]. The total amount of enzyme present (PDHt) and the amount which is present in the active form (PDHa) are assessed by a method similar to that described by Taylor et al. [J. Biol. Chem., 248, 73 (1973)]. The fat-feeding process is found to depress the ratio PDHa/PDHt from a normal value of about 0.7 to a value in the range from 0.05 to 0.2. Treatment of fat-fed rats with the compounds of formula (I) or (II) either parenterally or orally, increases this ratio in a dose dependent manner.
The increase in the PDHa/PDHt ratio affected by various of the compounds for the Examples at the dose level indicated is shown in the following Table: The compounds were administered by subcutaneous injection except where indicated by (0) where the compounds were administered orally.

[3] = test system: heart; assay: Myocardial blood flow and metabolism in fasted, closed-chest, anaesthetized, electrically paced beagle dogs; type: in vivo; settings: 0.02 to 0.1 millimole/kg. intravenously
Description: The ability of compounds of formula (I) or (II) to reduce oxygen demand and affect the relative utilization of carbohydrate and lipid metabolites in the heart has been assessed by measuring the effect of the compounds on myocardial blood flow and metabolism in fasted, closed-chest, anaesthetized beagle dogs, with cardiac catherization to enable simultaneous sampling of coronary sinus and arterial blood to be carried out. Coronary sinus blood flow is measured by the hydrogen gas clearance technique described by Aukland et al. [Circulation Res., 14, 164 (1964)]. The heart is paced electrically at 155 beats/minute and recordings of hemodynamic parameters (blood pressure, left ventricular pressure and the first derivative of the latter) are made continuously. Control measurement of coronary blood flow are made and samples of blood taken at 40 minute intervals, both in an untreated animal and in the same animal dose with an infusion of isoprenaline (60 ng./kg./min.), which both stimulates cardiac contraction and increases plasma free fatty acid levels. The compound of formula (I) or (II) is then administered intravenously and measurements are made and samples taken again, 40 minutes and 90 minutes later. The blood samples from the artery and coronary sinus are analyzed for oxyhemoglobin, pyruvate and free fatty acid (FFA) content, differences between those of the arterial and coronary sinus blood, when multiplied by coronary blood flow, being a measure of oxygen consumption, pyruvate uptake and FFA uptake by the myocardium respectively.

[4] = 0.6 mMol/kg., administered orally (0)
[5] = 0.6 mMol/kg., subcutaneous injection
[6] = 0.3 mMol/kg., administered orally (0)
[7] = 1.2 mMol/kg., subcutaneous injection
[8] = 0.3 mMol/kg., subcutaneous injection

SMILES: NC(C(=O)O)c1ccc(CC2CC2)[nH]1 (racemic) [Example 59, DL-2-(5-Cyclopropylmethyl-2-pyrrolyl)glycine]
- activation at 500 µM [1]: 29%
- PDHa/PDHt ratio [2, 4]: 0.21

SMILES: CCc1ccc(C(N)C(=O)O)[nH]1 (racemic) [Example 60, DL-2-(5-Ethyl-2-pyrrolyl)glycine]
- activation at 500 µM [1]: 59%
- PDHa/PDHt ratio [2, 5]: 0.16

SMILES: CCCCCc1ccc(C(N)C(=O)O)[nH]1 (racemic) [Example 61, DL-2-(5-n-Pentyl-2-pyrrolyl)glycine]
- activation at 500 µM [1]: 84%
- PDHa/PDHt ratio [2, 4]: 0.13

SMILES: NC(=O)C(N)c1ccc(CC2CC2)[nH]1 (racemic) [Example 64, DL-2-(5-Cyclopropylmethyl-2-pyrrolyl)glycinamide]
- effect on myocardial blood flow or any of the hemodynamic parameters measured [3]: no significant affect
- myocardial glucose uptake [3]: increased
- decrease of myocardial oxygen consumption ([3]; in the presence of isoprenaline): about 20%
- increase of myocardial pyruvate uptake ([3]; presence and absence of isoprenaline, for at least 40 minutes after dosing): at least 2 fold
- activation at 500 µM [1]: 87%
- PDHa/PDHt ratio [2, 5]: 0.27

SMILES: CCOC(=O)C(=O)c1ccc(C)[nH]1 [Example 1, 5-Methyl-2-pyrrolylglyoxylic Acid Ethyl Ester]
- activation at 500 µM [1]: 32%

SMILES: CCOC(=O)C(=O)c1ccc(C(C)(C)C)[nH]1 [Example 2]
- activation at 500 µM [1]: 50%

SMILES: CCCCc1ccc(C(=O)C(=O)OCC)[nH]1 [Example 6]
- PDHa/PDHt ratio [2, 6]: 0.23

SMILES: CCOC(=O)C(=O)c1ccc(CC(C)C)[nH]1 [Example 9]
- activation at 500 µM [1]: 65%

SMILES: CCOC(=O)C(=O)c1ccc(Cc2ccccc2)[nH]1 [Example 18]
- activation at 500 µM [1]: 19%

SMILES: CCc1ccc(C(=O)C(=O)O)[nH]1 [Example 20, 5-Ethyl-2-Pyrrolylglyoxylic Acid]
- activation at 500 µM [1]: 66%
- PDHa/PDHt ratio [2, 7]: 0.85

SMILES: O=C(O)C(=O)c1ccc(CC2CC2)[nH]1 [Example 21, 5-Cyclopropylmethyl-2-pyrrolylglyoxylic Acid Sodium Salt]
- activation at 500 µM [1]: 147%
- PDHa/PDHt ratio [2, 8]: 0.44
- PDHa/PDHt ratio [2, 5]: 0.71

SMILES: Cc1ccc(C(=O)C(=O)O)[nH]1 [Example 22]
- activation at 500 µM [1]: 51%
- PDHa/PDHt ratio [2, 7]: 0.84

SMILES: CCCc1ccc(C(=O)C(=O)O)[nH]1 [Example 23]
- activation at 500 µM [1]: 78%
- PDHa/PDHt ratio [2, 5]: 0.66
- PDHa/PDHt ratio [2, 7]: 0.82

SMILES: CCCCc1ccc(C(=O)C(=O)O)[nH]1 [Example 24, 2-(5-n-butyl-2-pyrrolyl)glyoxylic acid]
- activation at 500 µM [1]: 140%
- PDHa/PDHt ratio [2, 8]: 0.42

SMILES: CC(C)Cc1ccc(C(=O)C(=O)O)[nH]1 [Example 25]
- activation at 500 µM [1]: 59%
- PDHa/PDHt ratio [2, 5]: 0.45
- PDHa/PDHt ratio [2, 7]: 1.00

SMILES: CC(C)(C)c1ccc(C(=O)C(=O)O)[nH]1 [Example 26]
- activation at 500 µM [1]: 31%

SMILES: CCCCCc1ccc(C(=O)C(=O)O)[nH]1 [Example 27, 2-(5-n-amyl-2-pyrrolyl)glyoxylic acid]
- activation at 500 µM [1]: 157%
- PDHa/PDHt ratio [2, 5]: 0.13

SMILES: CC(C)(C)Cc1ccc(C(=O)C(=O)O)[nH]1 [Example 28]
- activation at 500 µM [1]: 88%

SMILES: CCCCCCc1ccc(C(=O)C(=O)O)[nH]1 [Example 29, 2-(5-n-hexyl-2-pyrrolyl)glyoxylic acid]
- activation at 500 µM [1]: 78%
- PDHa/PDHt ratio [2, 6]: 0.40

SMILES: CC(C)(C)CCc1ccc(C(=O)C(=O)O)[nH]1 [Example 30]
- activation at 500 µM [1]: 44%

SMILES: O=C(O)C(=O)c1ccc(CCC2CCCCC2)[nH]1 [Example 31]
- activation at 500 µM [1]: 125%
- PDHa/PDHt ratio [2, 6]: 0.20

SMILES: O=C(O)C(=O)c1ccc(Cc2ccccc2)[nH]1 [Example 32]
- activation at 500 µM [1]: 43%
- PDHa/PDHt ratio [2, 5]: 0.16
- PDHa/PDHt ratio [2, 7]: 0.83

SMILES: O=C(O)C(=O)c1ccc(CCc2ccccc2)[nH]1 [Example 33]
- activation at 500 µM [1]: 69%
- PDHa/PDHt ratio [2, 8]: 0.13

SMILES: CSc1ccc(C(=O)C(=O)O)[nH]1 [Example 34]
- activation at 500 µM [1]: 53%
- PDHa/PDHt ratio [2, 7]: 0.42

SMILES: O=C(O)C(=O)c1ccc(CCC2C=CCC2)[nH]1 (centres unmarked) [Example 35]
- activation at 500 µM [1]: 209%
- PDHa/PDHt ratio [2, 8]: 0.18

SMILES: O=C(O)C(=O)c1ccc(CC2CCCC2)[nH]1 [Example 36]
- activation at 500 µM [1]: 154%
- PDHa/PDHt ratio [2, 8]: 0.20

SMILES: O=C(O)C(=O)c1ccc(CC2CCCCC2)[nH]1 [Example 37]
- activation at 500 µM [1]: 124%
- PDHa/PDHt ratio [2, 8]: 0.12

SMILES: O=C(O)C(=O)c1ccc(CCC2CCCC2)[nH]1 [Example 38]
- activation at 500 µM [1]: 80%
- PDHa/PDHt ratio [2, 8]: 0.25

SMILES: CCCSc1ccc(C(=O)C(=O)OCC)[nH]1 [Example 39, 5-n-Propylthio-2-pyrrolylglyoxylic Acid Ethyl Ester]
- activation at 500 µM [1]: 44%

SMILES: CCCSc1ccc(C(=O)C(=O)O)[nH]1 [Example 40, 5-n-Propylthio-2-pyrrolylglyoxylic Acid]
- activation at 500 µM [1]: 80%
- PDHa/PDHt ratio [2, 8]: 0.27
